{"source": "the supplement of paper PMC3974653"}
{"test_system": "MTT (mouse pheochromocytoma)", "assay": "IC50 of cell viability (ATP content)", "conditions": "(24 or 48 h)", "summary_of_the_method": "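Cells of the MTT mouse pheochromocytoma line, 5 µl per well at 200,000 cells/ml, were grown overnight at 37°C, 5% CO2 in white 1536-well plates with DMEM, 5% FBS and 1% horse serum. Pintool transfer then delivered 23 nl of library compound in DMSO, giving 8 final concentrations from 0.5 nM to 46 µM, for an exposure of 24 or 48 hrs. Luminescence from CellTiter-Glo was read after 15 minutes and referenced to positive-control wells (100%) and DMSO wells (0%). IC50 was calculated with a four-parameter logistic fit.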", "units": {"IC50 of cell viability": "µM"}}
{"smiles": "OC[C@H]1O[C@@H]2O[C@H]3[C@H](O)[C@@H](O)[C@@H](O[C@H]4[C@H](O)[C@@H](O)[C@@H](O[C@H]5[C@H](O)[C@@H](O)[C@@H](O[C@H]6[C@H](O)[C@@H](O)[C@@H](O[C@H]7[C@H](O)[C@@H](O)[C@@H](O[C@H]8[C@H](O)[C@@H](O)[C@@H](O[C@H]1[C@H](O)[C@H]2O)O[C@@H]8CO)O[C@@H]7CO)O[C@@H]6CO)O[C@@H]5CO)O[C@@H]4CO)O[C@@H]3CO", "note": "[beta-Cyclodextrin]", "IC50 of cell viability": "> 46"}
{"smiles": "O=C1CCO1", "note": "[beta-Propiolactone]", "IC50 of cell viability": "> 46"}
{"smiles": "CCC(CCC(C)C1CCC2C3C\\C=C/4CC(O)CC[C@@]4(C)C3CC[C@@]12C)C(C)C", "note": "(stereo partly drawn) [beta-SITOSTEROL]", "IC50 of cell viability": "> 46"}
{"smiles": "CCCCCCCC(=O)O", "note": "[caprylic acid (octanoic acid)]", "IC50 of cell viability": "> 46"}
{"smiles": "C=C[C@@H]1CN2CC[C@H]1C[C@H]2[C@H](O)c1ccnc2ccccc12", "note": "[cinchonine]", "IC50 of cell viability": "> 46"}
{"smiles": "[Cl][Pt][Cl]", "note": "[cis-Diamineplatinum(II) dichloride]", "IC50 of cell viability": "> 46"}
{"smiles": "[NH2][Pt]([NH2])([Cl])[Cl]", "note": "[cis-Dichlorodiamine platinum]", "IC50 of cell viability": "> 46"}
{"smiles": "CCC(=O)OCC(=O)[C@@]1(OC(=O)CC)[C@@H](C)C[C@H]2[C@@H]3CCC4=CC(=O)C=C[C@]4(C)[C@@]3(F)[C@@H](O)C[C@@]21C", "note": "[dexamethasone dipropionate]", "IC50 of cell viability": "> 46"}
{"smiles": "CN(C)CCC(c1ccc(Cl)cc1)c1ccccn1", "note": "(stereo not drawn) [dexchlorpheniramine]", "IC50 of cell viability": "> 46"}
{"smiles": "CCN(CC)CCN1C(=O)CN=C(c2ccccc2F)c2cc(Cl)ccc21", "note": "[flurazepam]", "IC50 of cell viability": "> 46"}
{"smiles": "OCC(O)C(O)C(O)C(O)CO", "note": "(stereo not drawn) [galactitol]", "IC50 of cell viability": "> 46"}
{"smiles": "CC1(C)[C@@H]2CC[C@]1(C)[C@@H](OC(=O)CSC#N)C2", "note": "[isobornyl thiocyanoacetate]", "IC50 of cell viability": "> 46"}
{"smiles": "CCC(C)N1\\N=C/N(C1=O)C2=CC=C(C=C2)N3CCN(CC3)C4=CC=C(OCC5COC(C[N]6C=NC=N6)(O5)C7=CC=C(Cl)C=C7Cl)C=C4", "note": "(stereo not drawn) [itraconazole]", "IC50 of cell viability": "> 46"}
{"smiles": "Nc1ccn([C@@H]2CS[C@H](CO)O2)c(=O)n1", "note": "[lamivudine]", "IC50 of cell viability": "> 46"}
{"smiles": "CC(C(=O)O)c1ccc(CC2CCCC2=O)cc1", "note": "(stereo not drawn) [loxoprofen]", "IC50 of cell viability": "> 46"}
{"smiles": "Cc1ccc(O)cc1.Cc1cccc(O)c1.Cc1ccccc1O", "note": "[m-Cresol and o-cresol and p-cresol mixture]", "IC50 of cell viability": "> 46"}
{"smiles": "N=C(N)NCc1cccc(I)c1.N=C(N)NCc1cccc(I)c1.O=[S+]([O-])(O)O", "note": "[m-Iodobenzylguanidine hemisulfate]", "IC50 of cell viability": "> 46"}
{"smiles": "N=C(N)NCc1cccc(I)c1", "note": "[m-Iodobenzylguanidine hemisulfate]", "IC50 of cell viability": "> 46"}
{"smiles": "CC(C)OC(=O)C(\\C(=O)OC(C)C)=C1\\SC=CS1", "note": "[malotilate]", "IC50 of cell viability": "> 46"}
{"smiles": "CN1CCCC[C@@H]1CCN1c2ccccc2Sc2ccc([S+](C)[O-])cc21", "note": "(stereo partly drawn) [mesoridazine]", "IC50 of cell viability": "> 46"}
{"smiles": "CCCCO", "note": "[n-Butyl alcohol]", "IC50 of cell viability": "> 46"}
{"smiles": "CCCCCl", "note": "[n-Butyl chloride]", "IC50 of cell viability": "> 46"}
{"smiles": "CCCCC", "note": "[n-Pentane]", "IC50 of cell viability": "> 46"}
{"smiles": "CN1C(=O)CN=C(c2ccccc2)c2cc([N+](=O)[O-])ccc21", "note": "[nimetazepam]", "IC50 of cell viability": "> 46"}
{"smiles": "O=C1CN=C(c2ccccc2)c2cc([N+](=O)[O-])ccc2N1", "note": "[nitrazepam]", "IC50 of cell viability": "> 46"}
{"smiles": "Nc1ccccc1C(=O)O", "note": "[o-Anthranilic acid]", "IC50 of cell viability": "> 46"}
{"smiles": "COc1ccccc1O", "note": "[o-methoxyphenol]", "IC50 of cell viability": "> 46"}
{"smiles": "CC12CCC3c4ccc(O)cc4CCC3C1CCC2=O", "note": "(stereo not drawn) [oestrone]", "IC50 of cell viability": "> 46"}
